Among the data in a melting point compilation (Tetko et al.) are melting point values, retold here.

As usually defined, the melting point is the temperature of the solid-liquid transition.

Take `O=[N+]([O-])c1ccc(N/N=C/c2ccccc2)c([N+](=O)[O-])c1`: the melting point was 240 °C.

In turn, `COc1c(C)cc2c(c1C)CC2=O` returned a melting point of 51 °C.

The compound `COc1cc(C=CC(=O)O)ccc1OC(C)=O` yielded a melting point of 195 °C.

The compound `Cc1sc(N)nc1-c1ccccc1` came in with a melting point of 110 °C.

Compound `N#C/C(=N\Nc1ccc([N+](=O)[O-])cc1)c1nc2ccccc2c(=O)[nH]1` registered a melting point of 273 °C.

In turn, `NNC(=O)COc1ccc(F)cc1` displayed a melting point of 125 °C.

For the compound `Oc1ccc(C2CCCCC2)cc1`, the melting point worked out at 133 °C.

As for `Cc1cc(=O)oc2cc(OC3OC(CO)C(O)C(O)C3O)ccc12` (stereo not given), the melting point amounted to 248 °C.

Turning to `Nc1ccc([N+](=O)[O-])cc1O`, the melting point is 208 °C.

In the case of `Cc1nc(Cl)c(C(N)=O)c(C)c1Cl`, the melting point came out at 172 °C.

`CCCSc1nnc(S)s1`: the melting point was in the range of 145 to 147 °C.

On to `Cc1[nH]c2ccc(C(=O)O)cc2c1C`, for which the melting point fell in the range of 239 to 242 °C.

The compound `Clc1c2ccccc2nc2ccccc12` gave a melting point of 121 °C.

On to `ClC1=C(Cl)C(Cl)(C2(Cl)C(Cl)=C(Cl)C(Cl)=C2Cl)C(Cl)=C1Cl`, for which the melting point came to 122 °C.

Compound `CCCC(O)C1(C)CCC(C(=O)O)C(C)(C)O1` (stereo not given) registered a melting point of 179 °C.

The compound `O=C(O)C=Cc1ccc(Br)cc1F` returned a melting point of 219 to 223 °C.

`CCOC(=O)Nc1ccc2cc3ccc(NC)c(CO)c3nc2c1` returned a melting point of 145 °C.

Take `Nc1cccc2cc3ccccc3cc12`: the melting point came to 116 °C.

The compound `CC1(C)OC(=O)C(=C2CCCN2)C(=O)O1` returned a melting point of 171 to 175 °C.

On to `CC(=O)c1ccc(-c2cccs2)s1`, for which the melting point fell in the range of 109 to 114 °C.

Compound `O=Cc1cc([N+](=O)[O-])ccc1F` gave a melting point of 58 °C.

The compound `Nc1sccc1-c1nc2ccccc2s1` came in with a melting point of 138 to 140 °C.

Compound `Cc1c(C)c(C)c2c(c1C)CC2(C)O` (stereo not given) returned a melting point of 90 °C.

On to `O=C1Cc2cc3c(cc21)C(=O)C3`, for which the melting point came to 207 °C.

`COP(=S)(OC)Oc1c(Cl)cc(C)cc1Cl` registered a melting point of 79 °C.

In turn, `O=[N+]([O-])c1ccc2c(c1)NCC2` yielded a melting point of 68 °C.

For the compound `Oc1ccc(C(F)(F)F)cc1`, the melting point was 46 °C.

`NC(CS(=O)(=O)c1ccc(F)cc1)=NO` displayed a melting point of 180 to 183 °C.

Compound `NC(=O)c1cc(Cl)ccc1N` had a melting point of 171 °C.

Turning to `O=C(OCC1CC1)c1cnc(Cl)nc1C(F)(F)F`, the melting point fell in the range of 108 to 110 °C.

The compound `c1ccc(-c2cnco2)cc1` had a melting point of 37 to 39 °C.

Regarding `OCc1ccc(Br)cn1`, the melting point was 59 to 60 °C.

As for `C1=CC2=CC=C(O2)C2=CC=C(C=CC3=CC=C(O3)C3=CC=C1O3)O2`, the melting point was 270 to 271 °C.

Consider `N#Cc1c(F)cccc1-n1cccc1`, for which the melting point fell in the range of 67 to 69 °C.

Compound `O=C(/C=C/c1ccc(OCC2CO2)cc1)c1ccccc1` (stereo not given) gave a melting point of 92 °C.

On to `Clc1cc(-c2ccccc2)nc2ccccc12`, for which the melting point lay in the range of 62 to 64 °C.

In the case of `Cc1cc(S(=O)(=O)Cl)ccc1Br`, the melting point stood at 59 °C.

On to `COc1ccccc1/N=N/c1c(N)nn2c(C(F)(F)F)cc(=O)[nH]c12`, for which the melting point came to 295 °C.

In turn, `CC(=O)CC(=O)C(=O)O` had a melting point of 99.5 °C.

Regarding `Clc1cccc2c(C#Cc3ccccc3)c3ccccc3c(C#Cc3ccccc3)c12`, the melting point is 199 to 204 °C.

`Oc1nnc(C2c3ccccc3Oc3ccccc32)o1` registered a melting point of 335 to 337 °C.

For the compound `CC(=O)Nc1ccccc1CCc1ccccc1`, the melting point came out at 117 °C.

For `O=C(CBr)c1c(Cl)cc(C(F)(F)F)cc1Cl`, the melting point lay in the range of 46 to 48 °C.

As for `O=[N+]([O-])c1ccc(S(=O)(=O)OCc2cccc(OS(=O)(=O)c3ccc([N+](=O)[O-])cc3)c2)cc1`, the melting point fell in the range of 199 to 202 °C.

Regarding `OCCc1ccccc1C(F)(F)F`, the melting point is 2 to 3 °C.

For the compound `O=c1nc2ccccc2nc(C(F)(F)F)c1NNc1ccc(Cl)cc1`, the melting point was found to be 151 °C.

`CCCCCCCCCCCCOC(=O)c1ccc(N)cc1` came in with a melting point of 82 °C.

`C[C@]12CCC(=O)C(Br)[C@H]1CC[C@@H]1[C@@H]2CC[C@]2(C)C(O)CC[C@@H]12` (stereo not given in full): the melting point came out at 143 °C.

Compound `O=C(Cl)c1ccc2nccnc2c1` yielded a melting point of 119 °C.

`CC(=O)N[C@@H](CC(C)C)C(=O)O`: the melting point worked out at 178 °C.

Compound `Cc1ccccc1NC(=S)C(=O)c1ccccc1` registered a melting point of 124 °C.

Turning to `Cc1cc(O)c(C(=O)O)c(O)c1`, the melting point is 176 °C.

`O=c1[nH]c2ccccc2c(-c2ccccc2)c1O` returned a melting point of 268 °C.

Take `Cc1cnnc2ccc3nonc3c12`: the melting point fell in the range of 171 to 173 °C.

Compound `O=C(O)C(=Cc1cccc([N+](=O)[O-])c1)c1cccc([N+](=O)[O-])c1` registered a melting point of 150 to 160 °C.

`O=P(O)(O)OC1C(O)C(O)C(O)C(O)C1O` (stereo not given) had a melting point of 195 °C.

`CCCc1ccccn1` returned a melting point of 2 °C.

Consider `CC12CCC(=O)C3OC31CC(C1(O)CCC3(C)C(=O)CCC34OC14)C2=O` (stereo not given), for which the melting point stood at 182 °C.

`Cc1nn(C)c(OCC(=O)c2ccccc2)c1C(=O)c1ccc(Cl)cc1Cl` displayed a melting point of 112 °C.

As for `N#CC(=CN1CCOCC1)C(N)=O`, the melting point fell in the range of 173 to 177 °C.

In turn, `CCOc1cc2c(cc1OCC)C(=S)NCC2` displayed a melting point of 150 to 152 °C.

On to `Nc1ccc(Cl)cc1N`, for which the melting point was determined as 76 °C.

With `CNC(C)C1CCC(N)C(OC2C(N)CC(N)C(OC3OCC(C)(O)C(NC)C3O)C2O)O1` (stereo not given), the melting point is 105 °C.

In turn, `CCOC(=O)c1c(Nc2ccc(OC)cc2)sc2c(-c3ccccc3)c3c(N)n[nH]c3nc12` returned a melting point of 248 to 252 °C.

`O=C1c2ccccc2C(=O)N1c1cn[nH]c1`: the melting point was 259 to 260 °C.

With `CCOC(=O)c1sc2sc(C(=O)OCC)c(C)c2c1C`, the melting point is 187 °C.

On to `Cc1ccc(C=CC(=O)O)cc1`, for which the melting point lay within 198 to 201 °C.

For `O=C(O)c1cc2cc(OC(F)(F)F)ccc2[nH]1`, the melting point fell in the range of 204 to 207 °C.

The compound `CCOC(=O)c1c(Cl)cc(C)nc1Cl` came in with a melting point of 53 to 57 °C.

`O=C(O)c1cccnc1Oc1ccccc1` displayed a melting point of 181 °C.

In turn, `O=c1[nH]c2ccccc2n1-c1ccccc1` registered a melting point of 207 °C.

In turn, `COc1ccc(-c2nnc3n2NC(c2ccc(O)c(OC)c2)S3)cc1` (stereo not given) yielded a melting point of 173 °C.

`COc1ccc(CCNCC(O)COc2cccc(C)c2)cc1OC` (stereo not given) came in with a melting point of 138 °C.

Compound `O=C=Nc1ccc(I)cc1` gave a melting point of 45 °C.

As for `CCCCCCCCC(C)=O`, the melting point came out at 14 °C.

As to `CN(C)c1ccc(C=Cc2ccccc2)cc1`, the melting point came to 150 °C.

In the case of `Nc1c([N+](=O)[O-])cc(Cl)cc1[N+](=O)[O-]`, the melting point stood at 147 °C.

In turn, `CCOC(=O)c1cn(-c2ccc(F)cc2F)c2nc(Cl)c(F)cc2c1=O` came in with a melting point of 212 to 215 °C.

The compound `O=[N+]([O-])c1ccccc1-c1ccccc1[N+](=O)[O-]` came in with a melting point of 126 °C.

Turning to `CCCCN(C(C)=O)c1ccccc1`, the melting point stood at 24.5 °C.

`O=C1CCCCCCN1` yielded a melting point of 36.5 °C.

With `C1CC2OC2CC1C1CO1` (stereo not given), the melting point was -109 °C.

`Nc1nc(=O)[nH]cc1F` showed a melting point of 296 °C.

Take `O=[N+]([O-])c1ccsc1Cl`: the melting point fell in the range of 51 to 52 °C.

With `FC(F)(F)C(F)(F)C(F)(F)I`, the melting point is -95 °C.

For the compound `CNC(=O)C(=NOC)c1ccccc1Oc1ccccc1`, the melting point worked out at 88 °C.

In turn, `O=C1c2ccccc2C(=O)N1CCOCCO` showed a melting point of 64 °C.

`O=[N+]([O-])c1ccc(Cl)cc1CO` came in with a melting point of 77 to 82 °C.

For the compound `COc1ccc2c(OC)cccc2c1`, the melting point is 58.5 °C.

Compound `CCOC(=O)CCC(=O)c1ccc(OC)cc1` returned a melting point of 51 °C.

Regarding `CC1(C)C2CCC1(C)C(O)C2C(c1ccccc1)c1ccccc1` (stereo not given), the melting point turned out to be 171 °C.

Compound `CCc1c(C)nc(N)nc1Cl` yielded a melting point of 213 to 214 °C.

As for `COC(=O)CCc1cccc(CCC(=O)OC)c1`, the melting point stood at 51 °C.

Compound `Cc1ccc(O)c(CO)n1` showed a melting point of 157 to 159 °C.

`Cc1nc2ccccc2n1CCc1nnc(SCc2ccccc2)n1-c1ccccc1` displayed a melting point of 130 °C.

Regarding `COC12C(COC(N)=O)C3=C(C(=O)C(C)=C(Nc4cnccc4N)C3=O)N1CC1NC12` (stereo not given), the melting point stood at 159 °C.

For the compound `CCCCCCCCCCCCCCCC(=O)c1ccccc1`, the melting point amounted to 59 °C.

Compound `Cc1cc(OC(=O)N(C)C)n(-c2ccccc2)n1` displayed a melting point of 50 °C.

`CC1=C(C#N)C(c2cccc([N+](=O)[O-])c2)C(C(=O)OC(C)(C)C)=C(C)N1` (stereo not given) showed a melting point of 61 °C.

`COc1ccc(C(C)(C)c2ccc(OC)cc2)cc1` registered a melting point of 54 to 59 °C.

On to `CCC(C1CCCCC1)C1CCCCC1`, for which the melting point is -23.5 °C.

In turn, `CCc1ccc(C(=O)NN(C(=O)c2cc(C)cc(C)c2)C(C)(C)C)cc1` yielded a melting point of 191 °C.

`COc1ccc(NC(=S)NN=Cc2c(-c3ccc(Cl)cc3)[nH]c3ccccc23)cc1` returned a melting point of 230 to 232 °C.

`N[C@H](c1ccccc1)[C@@H](O)c1ccccc1` came in with a melting point of 142 to 144 °C.

Compound `Cn1nc(CCl)c2ccccc21` registered a melting point of 62 to 63 °C.

`O=NN1CCCC1c1cccnc1` (stereo not given) returned a melting point of 47 °C.

As to `NC(=S)c1c(Cl)cc(C(F)(F)F)cc1Cl`, the melting point was 176 to 178 °C.

Compound `O=S(=O)(Cl)c1occc1C1OCCO1` displayed a melting point of 34 to 39 °C.

In turn, `Cc1ccc(O)c(I)n1` returned a melting point of 195 to 201 °C.

Take `Cc1cccc(C)c2cc(C(C)C)cc1-2`: the melting point came to 32.3 °C.
